Drawing on patent EP4703359A1 (Shanghai Simr Biotechnology Co., Ltd., priority 2023, dated 2024), this text covers Ki and Emax for three compounds.

Experiment [1] concerns the target T1, α2-GABAA receptor (Homo sapiens, UniProt P18507+P47869).
T1 construct: expressed in transfected cells
Description: Radioactive ligand (3H-flunitrazepam) competitive binding assay, BZD site of membrane proteins of α2-GABAAR-HEK293 cells. As to conditions: competition with 1 nM 3H-flunitrazepam; HEK293 membranes expressing α2, β3, γ2 subunits; Ki calculated from IC50; read-out: α2 Ki.

Experiment [2] concerns the target T1, α2-GABAA receptor. The experiment in a line: Whole-cell patch-clamp electrophysiology, positive allosteric modulatory activity in α2-GABAAR-HEK293 cells. It counts as cell-based. As to conditions: compound 100 nM; GABA 0.10 to 0.11 µM (approximately EC7-8); normalized to reference compound CVL-865 (= 100%); read-out: α2-GABAAR Positive allosteric modulatory activity. The method, boiled down:
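HEK293 cells stably co-expressing α2β3γ2 GABAA receptor, whole-cell patch clamp at -60 mV. Compounds at 100 nM final applied with GABA 0.10–0.11 µM (~EC7-8) after GABA-only current stabilized. […]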
On the technique in general: Patch clamp records ionic current or voltage across a cell membrane.

The term Ki denotes a measure of affinity in units of concentration, obtained from inhibition or displacement. For the compound `CCCNC(=O)c1nc2c(Oc3cc(F)ccc3OC)cccn2c1N` [Example 144, 3-Amino-8-(5-fluoro-2-methoxyphenoxy)-N-propylimidazo[1,2-a]pyridine-2-carboxamide], the Ki in experiment [1] was 4.97 nM. In experiment [2], the Emax at 0.1 µM was determined as 95%.

Take `CCCNC(=O)c1nc2c(-c3cccc(CC#N)c3)cccn2c1N` [Example 36, 3-amino-8-(3-(cyanomethyl)phenyl)-N-propylimidazo[1,2-a]pyridine-2-carboxamide]: the inhibitory constant (Ki) in experiment [1] is 21.2 nM. Besides, the Emax at 0.1 µM in experiment [2] is 181%.

For the compound `CCCNC(=O)c1nc2c(-c3cccc(C)c3F)cccn2c1N` [Example 64, 3-Amino-8-(2-fluoro-3-methylphenyl)-N-propylimidazo[1,2-a]pyridine-2-carboxamide], the Ki in experiment [1] was 3.37 nM. Besides, the Emax at 0.1 µM in experiment [2] turned out to be 93%.
